Results from patent publication US12599130B2, “Liquid agricultural adjuvant” (Oro Agri Inc., priority 2019, dated 2026).

What was measured:
[1] = Paraffin wax solubility test; type: physicochemical; conditions: 2.0 g paraffin wax in 98 g solvent, 25° C.; for OBSERVATION: up to 24 hours stirring; for DISSOLUTION TIME: stirring at 350 rpm
[2] = system: wheat; test: Field trial: wheat cover crop burndown with glyphosate plus adjuvant at full tillering; type: in vivo; conditions: adjuvant rate 10 g/L, glyphosate 420 g ae/ha
Method: Adjuvant x Adjuvant rate effect on wheat cover crop burndown with glyphosate at full tillering stage.
A bifactorial trial was conducted consisting of […] treatments, comprised of a combination of 10 adjuvants (factor A) and 2 adjuvants rates (factor B), plus three reference treatments (Table 6).
Prior to treatment application, two plots per block were chosen to record wheat height and tiller number per plant. In each plot, the height of the tallest and shortest plant was measured, and the tillers counted.
Herbicide application was done using a single-nozzle boom connected to a backpack CO2 pressurized system. Each plot measured 3 ft×20 ft. After 14 and 28 days of application, wheat desiccation was evaluated visually using a 0-100% scale, where 0 corresponds to absence of injury symptoms and 100% corresponds to plant death.

## O=C1CCCCC1 [CYCLOHEXANONE]
[1]
  OBSERVATION: UNDISSOLVED

## CC1COC(=O)O1 (stereo not drawn) [PROPYLENE CARBONATE]
[1]
  OBSERVATION: UNDISSOLVED

## OCC1CCCO1 (stereo not drawn) [TETRAHYDROFURFURAL ALCOHOL]
[1]
  OBSERVATION: UNDISSOLVED

## CCCCCCCCCCCC(=O)OCC(CC)CCCC (stereo not drawn) [2-ETHYLHEXYL LAURATE]
[1]
  DISSOLUTION TIME: 930 min

## CCCCCCCCCCCC(=O)OCC(C)C [ISOBUTYL LAURATE]
[1]
  DISSOLUTION TIME: 340 min

## N.N.O=S(=O)(O)O [Ammonium sulfate]
[2]; 14 DAT
  Wheat desiccation (%): 80%
[2]; 28 DAT
  Wheat desiccation (%): 95%

## CCCCCCCCCCCC(=O)OC(C)C [ISOPROPYL LAURATE]
[1]
  DISSOLUTION TIME: 102 min

## C[S+](C)[O-] [DIMETHYL SULFOXIDE]
[1]
  OBSERVATION: UNDISSOLVED

## CCCCCCCCCCCC(=O)OCCC(C)C [ISOAMYL LAURATE]
[1]
  DISSOLUTION TIME: 620 min

## CCCCCCCCCC(=O)N(C)C
[1]
  OBSERVATION: UNDISSOLVED

## CCCCCCCCCCCC(=O)OC [METHYL LAURATE]
[1]
  DISSOLUTION TIME: 300 min
